These results are taken from paper PMC11565411, “Proinsulin C-peptide is a major source of HLA-DQ8 restricted hybrid insulin peptides recognized by human islet-infiltrating CD4^+ T cells” (PNAS Nexus, 2024).

The test system of experiment [1] is T cell avatar A_4_2 (Jurkat expressing TCR from human islet-infiltrating CD4+ T cell, Donor A). In words: T cell avatar NanoLuciferase response to synthetic peptide. The class given is cell-based. The note with it: highest concentration tested 20 μM. From the text:
Briefly, we used CRISPR/Cas9 to generate a variant of the human T cell line Jurkat that was deficient in TRAC, TRBC, and CD4. […] This parental Jurkat line was then transduced with the TRAV and TRBV constructs that express the TRAV and TRBV genes that form the TCR expressed by human islet-infiltrating CD4^+ T cells. […] Transduced cells expressing CD3 and TCR were purified by flow cytometry or magnetic bead enrichment. Briefly, cells were resuspended in viral supernatant at 1–2 × 10^6/ml with 5 μg/ml polybrene. Cells were centrifuged at 1,200 rpm (300 g) for 60 min at room temperature, then diluted 1:1 in fresh medium and incubated overnight at 37 °C, 5% CO2. […] Compensation settings were determined using single-color controls. […]
The HIP super-pool bacteria were cultured from frozen glycerol stock in LB media with antibiotics at 37 °C with agitation 210 rpm. […] After 22–24 h of coculture, the NanoLuciferase activity was measured using the Nano-Glo Luciferase assay (Promega) according to the manufacturer's instructions. Luminescence was measured on a plate reader (Enspire Perkin Elmer). Responses are reported as the Δluciferase, which is calculated by subtracting the average background (no antigen) luciferase reading measured in the negative control cultures from the response measured in the other treatments. […]

Experiment [2] concerns T cell avatar A_4_7. Described as above. The note with it: highest concentration tested 20 μM. Type of experiment: cell-based, human. From the text:
(§1) Briefly, we used CRISPR/Cas9 to generate a variant of the human T cell line Jurkat that was deficient in TRAC, TRBC, and CD4. […] This parental Jurkat line was then transduced with the TRAV and TRBV constructs that express the TRAV and TRBV genes that form the TCR expressed by human islet-infiltrating CD4^+ T cells. […] Transduced cells expressing CD3 and TCR were purified by flow cytometry or magnetic bead enrichment. Briefly, cells were resuspended in viral supernatant at 1–2 × 10^6/ml with 5 μg/ml polybrene. Cells were centrifuged at 1,200 rpm (300 g) for 60 min at room temperature, then diluted 1:1 in fresh medium and incubated overnight at 37 °C, 5% CO2. Flow cytometry was performed on a Becton Dickinson LSR Fortessa to determine the proportion of CD3 and TCR expressing cells. The following antihuman mAbs were used for FACS staining: CD3-PE (UCHT1, BD Biosciences), and anti-TCRαβ-AF647 (IP26, BioLegend). Cells were stained with the appropriate mAb in phosphate buffered saline (PBS) 0.1% foetal bovine serum (FBS) for 20 min on ice, then washed twice. Dead cells were excluded by propidium iodide staining. Compensation settings were determined using single-color controls. TCR and CD3 expressing cells were purified by FACS or using REALease CD3 Microbead Kit (Miltenyi) following the manufacturer's instructions. All Jurkat T cell avatars used were >85% CD3^+/TCR^+.
(§2) The HIP super-pool bacteria were cultured from frozen glycerol stock in LB media with antibiotics at 37 °C with agitation 210 rpm. The overnight HIP-expressing bacteria cultures were diluted to an OD600 of 0.06 and grown in 48-well plates in 200 μl LB medium with antibiotics until an OD600 of 0.5 was reached. […] After 22–24 h of coculture, the NanoLuciferase activity was measured using the Nano-Glo Luciferase assay (Promega) according to the manufacturer's instructions. Luminescence was measured on a plate reader (Enspire Perkin Elmer). Responses are reported as the Δluciferase, which is calculated by subtracting the average background (no antigen) luciferase reading measured in the negative control cultures from the response measured in the other treatments.
(§3) Peptides (Genscript) were dissolved in dimethyl sulfoxide (DMSO) to 5.0 mM, aliquoted and stored at −80 °C. The CD4^+ T cell avatars' responses to peptides were measured as described above; except synthetic peptides were used as antigens, instead of E. coli and the antigen/EBV cells were not cultured overnight before the T cell avatars were added. A T cell's response to antigen was measured as luciferase activity using the Nano-Glo Luciferase assay system (Promega) according to the manufacturer's instructions (as above). The HLA-restriction of the HIP-specific CD4^+ T cell clones was determined in a two-step process as described previously ([10]). […]

For experiment [3], the system named is T cell avatar A_4_8. The description is as above. Type of experiment: cell-based, human. The note with it: highest concentration tested 20 μM.
Description: as §1, §2, §3

The subject of experiment [4] is HIP-specific T cell avatars. Put plainly: T cell avatar NanoLuciferase response, panel of HIP-specific avatars. The class given is cell-based, human. The note with it: nine HIP-specific avatars; highest concentration 20 μM; weak left-hand response in 3 of 9 avatars; very weak C-peptide response in three cases. Here is the method:
as §2, with “reached. Protein expression was induced by adding isopropyl β-D-thiogalactopyranoside (2.0 mM, Sigma). Incubation was continued for another 4 h at 37 °C in a shaking incubator.” for “reached.”
Peptides (Genscript) were dissolved in dimethyl sulfoxide (DMSO) to 5.0 mM, aliquoted and stored at −80 °C. The CD4^+ T cell avatars' responses to peptides were measured as described above; except synthetic peptides were used as antigens, instead of E. coli and the antigen/EBV cells were not cultured overnight before the T cell avatars were added. […] The T cell avatar's responses were measured as above. […]

For experiment [5], the system named is T cell avatar A_4_5. The note with it: previous characterisation, clone A4.5 (A_4_5); ref [15, 34]; cited from earlier work. From the text:
(§4) Supplement pgae491_supplementary_data.docx, table 6: Supplementary Table 6. Summary of previous characterisation of human islet-infiltrating CD4^+ T cells. | column: HLA-restriction

The subject of experiment [6] is T cell avatar A_4_6. The note with it: previous characterisation, clone A3.10 (A_4_6); ref [15, 34]; cited from earlier work.
Description: as §4

Experiment [7] concerns T cell avatar K_4_161. In words: T cell avatar NanoLuciferase response to synthetic peptide. The class given is cell-based, human.
Description: as §1, §2, §3

Experiment [8] relates to T cell avatar A_4_2 (Jurkat expressing TCR from human islet-infiltrating CD4+ T cell, Donor A). The note with it: previous characterisation, clone A1.9 (A_4_2); ref [5, 34]; cited from earlier work.
Description: as §4

In experiment [9] the test system is T cell avatar A_4_7. The note with it: previous characterisation, clone A5.5 (A_4_7); ref [5]; cited from earlier work.
Description: as §4

For experiment [10], the system named is T cell avatar A_4_8. The note with it: previous characterisation, clone A5.8 (A_4_8); ref [5]; cited from earlier work.
Description: as §4

As to “EAEDLQVGQVELGGGPGAGSLQPLALEGSLQ [C-peptide, full-length proinsulin C-peptide]”, the “response to full-length C-peptide (Δluciferase)” value in experiment [1], in experiment [2] and in experiment [3] was “very weak” each time. Besides, the “T cell avatar response (Δluciferase) to native peptide” value in experiment [4] is listed as “did not respond”.

In the case of “GQVELGGG-NAVEVLK [HIP-6, previously reported C-peptide-IAPP2 HIP]”, the HLA-restriction result in experiment [5] and in experiment [6] was “HLA-DQ8” each time.

“REAEDLQVG-VCGERGF [HIP-K, hybrid insulin peptide formed by fusion of proinsulin fragments]”: in [7] (blocking mAbs and single-HLA APC lines, peptide 1.0 μM), the HLA restriction result is recorded as “DQ8”. Moreover, the EC50 – broadly, the midpoint of the concentration-response curve – in [7] (synthetic peptide titration, autologous EBV B cells, NanoLuciferase, triplicate) was more than 20 µM.

With VELGGGPGA, the HLA-restriction result in experiment [8], in experiment [9] and in experiment [10] was “HLA-DQ8” each time.
